# Data: paper PMC7419507, “In vitro Cas9-assisted editing of modular polyketide synthase genes to produce desired natural product derivatives” (Nature Communications, 2020)
# Values joined by “and” are separate entries in the source; they are usually repeats but may differ in a detail not shown here. Equal values may be shown once.
# Assays:
# Format in all cases: cell-based
# FKBP12 and mTOR = target: T1, FKBP12 and mTOR (Homo sapiens, UniProt P42345+P62942); experiment: Fluoppi analysis: induction of FKBP12-mTOR complex formation in transfected HeLa cells; settings: for Foci intensity: raw data, one replicate per line
# T1 construct: host or cells: HeLa cells
# Description: Fluoppi harbours a tetrameric fluorescent protein hAG tag and an oligomeric assembly helper Ash tag to create detectable fluorescent foci in cells when there are interactions between two proteins fused to each tag[32].
# HeLa cells were maintained in DMEM (Fujifilm Wako, Osaka, Japan) supplemented with 10% FBS (Thermo Fisher Scientific, MA, USA) and 1% of Penicillin-Streptomycin (Thermo Fisher Scientific) in a humidified incubator with 5% CO2 at 37 °C. Harvested cells were plated at 1 × 10^6 cells/well in 6-well plate and incubated for 6 h. Then each 1.25 µg of phAG-mTOR and pAsh-FKBP12 (Medical and Biological Laboratories Co., Ltd., Aichi, Japan) was co-transfected with Lipofectamine 2000 reagent (Thermo Fisher Scientific) overnight. Next day, transfected cells were harvested and seeded in 384-well optical-bottom microplate (PerkinElmer, MA, USA) at a density of 3000 cells/well. After the 24 h incubation at 37 °C, cells were treated with different concentrations of compounds for 1 h. Cells were then fixed with 4% paraformaldehyde and stained with 1 µg/ml of Hoechst33342 (Thermo Fisher Scientific). Cell images of 9 visual fields/well were acquired with ×20 objective lens in Opera Phenix High-Content Screening System (PerkinElmer) and analysed by Harmony4.9 software (PerkinElmer). Because protein-protein interactions are quantified by measuring the aggregation of fluorescent elements in foci, fluorescent intensity in foci was normalised by total fluorescent intensity in each cell. EC50 values were calculated using TIBCO Spotfire 10.3 software (PerkinElmer).
# T lymphoma Jurkat cells = experiment: Cytotoxicity assay (CellTiter-Glo, 72 h), Jurkat; settings: raw data (replicates)
# Description: (§1) Jurkat cells were cultured in RPMI1640 medium supplemented with 10% foetal bovine serum, penicillin (50 U/ml), streptomycin (50 μg/ml), and Glutamax. SKOV-3 cells were cultured in DMEM medium supplemented with 10% fetal bovine serum, penicillin (50 U/ml), and streptomycin (50 μg/ml). MESO-1 cells were cultured in RPMI1640 medium supplemented with 10% fetal bovine serum, penicillin (50 U/ml), and streptomycin (50 μg/ml). All cell lines were seeded in a 384-well plate at a density of 1000 cells/well in 20 μl of media and incubated at 37 °C in a humidified incubator with 5% CO2. After 4 h, 2-fold dilution samples resolved in DMSO were added to the cell culture at the concentration of 0.5% (0.1 μl) and incubated for 72 h. Cell viabilities were measured using a CellTiter-Glo luminescent cell viability assay and EnVision multilabel plate reader.
# [1] = test system: human ovarian adenocarcinoma SKOV-3 cells; experiment: Cytotoxicity assay (CellTiter-Glo, 72 h), SKOV-3; settings: raw replicate data
# Description: as §1
# [2] = test system: malignant pleural mesothelioma MESO-1 cells; experiment: Cytotoxicity assay (CellTiter-Glo, 72 h), MESO-1; settings: raw replicate data
# Description: as §1
# [3] = test system: Jurkat, SKOV-3 and MESO-1 cells; experiment: Cytotoxicity assay, statements for all tested cell lines together
# Description: as §1
# T1 sequence (P42345 2025-2114 limits assumed): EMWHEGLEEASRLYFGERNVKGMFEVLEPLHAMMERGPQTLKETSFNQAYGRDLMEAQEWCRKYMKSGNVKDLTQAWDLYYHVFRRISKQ
# T1 sequence (P62942 whole entry): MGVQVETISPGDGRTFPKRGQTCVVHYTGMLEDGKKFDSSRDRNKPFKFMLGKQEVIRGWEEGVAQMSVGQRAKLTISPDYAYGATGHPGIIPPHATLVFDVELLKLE
smiles,measurement,setting,value
COC1CC2CCC(C)C(O)(O2)C(=O)C(=O)N2CCCCC2C(=O)OC(C(C)CC2CCC(O)C(OC)C2)CC=C(C)C(O)CC(=O)C(C)CC(C)C=CC=CC=C1C (stereo not drawn) [Compound 10],"PPI-inducing (binding enhancing) activity between FKBP12 and mTOR compared with rapamycin (1), in words",FKBP12 and mTOR; Fluoppi,relatively weaker activities
same,EC50,"FKBP12 and mTOR; Fluoppi, HeLa cells, 1 h treatment, three independent biological replicates, read-out: EC50, induction of the formation of FKBP-mTOR complex",21 nM
same,Foci intensity,FKBP12 and mTOR; conc 9.53674e-5 uM,0.02938 and 0.02062 and 0.01935
same,Foci intensity,FKBP12 and mTOR; conc 0.000190735 uM,0.01089 and 0.04735 and 0.006372
same,Foci intensity,FKBP12 and mTOR; conc 0.00038147 uM,0.02158 and 0.01349 and 0.009009
same,Foci intensity,FKBP12 and mTOR; conc 0.000762939 uM,0.009136 and 0.02959 and 0.01473
same,Foci intensity,FKBP12 and mTOR; conc 0.00152588 uM,0.01663 and 0.006313 and 0.01798
same,Foci intensity,FKBP12 and mTOR; conc 0.00305176 uM,0.01047 and 0.01326 and 0.01713
same,Foci intensity,FKBP12 and mTOR; conc 0.00610352 uM,0.03111 and 0.03528 and 0.05091
same,Foci intensity,FKBP12 and mTOR; conc 0.012207 uM,0.1191 and 0.0902 and 0.07426
same,Foci intensity,FKBP12 and mTOR; conc 0.0244141 uM,0.2308 and 0.2676 and 0.239
same,Foci intensity,FKBP12 and mTOR; conc 0.0488281 uM,0.3046 and 0.3291 and 0.3775
same,Foci intensity,FKBP12 and mTOR; conc 0.0976562 uM,0.4136 and 0.3574 and 0.3612
same,Foci intensity,FKBP12 and mTOR; conc 0.195312 uM,0.3726 and 0.4258 and 0.4147
same,Foci intensity,FKBP12 and mTOR; conc 0.390625 uM,0.4457 and 0.3806 and 0.4256
same,Foci intensity,FKBP12 and mTOR; conc 0.78125 uM,0.3848 and 0.4238 and 0.4902
same,Foci intensity,FKBP12 and mTOR; conc 1.5625 uM,0.4004 and 0.3924 and 0.3797
same,Foci intensity,FKBP12 and mTOR; conc 3.125 uM,0.374 and 0.3995 and 0.4137
same,Foci intensity,FKBP12 and mTOR; conc 6.25 uM,0.4751 and 0.3772 and 0.3106
same,Foci intensity,FKBP12 and mTOR; conc 12.5 uM,0.4864 and 0.3577 and 0.3572
same,Foci intensity,FKBP12 and mTOR; conc 25 uM,0.403 and 0.3428 and 0.3243
same,Foci intensity,FKBP12 and mTOR; conc 50 uM,0.4648 and 0.4194 and 0.3824
same,Jurkat viability (%),T lymphoma Jurkat cells; conc 9.53674e-5 uM,100.6% and 99.4% and 103.1%
same,Jurkat viability (%),T lymphoma Jurkat cells; conc 0.000190735 uM,101.6% and 102.5% and 98.5%
same,Jurkat viability (%),T lymphoma Jurkat cells; conc 0.00038147 uM,98.4% and 99.9%
same,Jurkat viability (%),T lymphoma Jurkat cells; conc 0.000762939 uM,100.1% and 103.3% and 99.4%
same,Jurkat viability (%),T lymphoma Jurkat cells; conc 0.00152588 uM,103.7% and 95.3% and 102.7%
same,Jurkat viability (%),T lymphoma Jurkat cells; conc 0.00305176 uM,99.4% and 102.2% and 96.7%
same,Jurkat viability (%),T lymphoma Jurkat cells; conc 0.00610352 uM,103.1% and 102.2% and 98.6%
same,Jurkat viability (%),T lymphoma Jurkat cells; conc 0.012207 uM,106.4% and 103.4% and 103.7%
same,Jurkat viability (%),T lymphoma Jurkat cells; conc 0.0244141 uM,106.5% and 107.7% and 103.0%
same,Jurkat viability (%),T lymphoma Jurkat cells; conc 0.0488281 uM,101.8% and 99.9% and 103.2%
same,Jurkat viability (%),T lymphoma Jurkat cells; conc 0.0976562 uM,106.2% and 107.8% and 101.3%
same,Jurkat viability (%),T lymphoma Jurkat cells; conc 0.195312 uM,97.6% and 99.7% and 92.3%
same,Jurkat viability (%),T lymphoma Jurkat cells; conc 0.390625 uM,92.6% and 88.6% and 95.1%
same,Jurkat viability (%),T lymphoma Jurkat cells; conc 0.78125 uM,82.4% and 83.0% and 85.1%
same,Jurkat viability (%),T lymphoma Jurkat cells; conc 1.5625 uM,79.7% and 82.1% and 77.6%
same,Jurkat viability (%),T lymphoma Jurkat cells; conc 3.125 uM,74.2% and 71.9% and 69.9%
same,Jurkat viability (%),T lymphoma Jurkat cells; conc 6.25 uM,76.5% and 74.7% and 74.5%
same,Jurkat viability (%),T lymphoma Jurkat cells; conc 12.5 uM,63.4% and 64.1% and 59.5%
same,Jurkat viability (%),T lymphoma Jurkat cells; conc 25 uM,29.8% and 32.1% and 29.9%
same,Jurkat viability (%),T lymphoma Jurkat cells; conc 50 uM,2.7% and 3.5% and 3.4%
same,SKOV3 viability (%),[1]; conc 9.53674e-5 uM,102.2% and 102.6% and 104.7%
same,SKOV3 viability (%),[1]; conc 0.000190735 uM,89.9% and 100.2% and 100.4%
same,SKOV3 viability (%),[1]; conc 0.00038147 uM,103.4% and 105.0% and 103.9%
same,SKOV3 viability (%),[1]; conc 0.000762939 uM,100.5% and 98.4% and 99.4%
same,SKOV3 viability (%),[1]; conc 0.00152588 uM,106.0% and 105.3%
same,SKOV3 viability (%),[1]; conc 0.00305176 uM,103.5% and 101.1% and 97.3%
same,SKOV3 viability (%),[1]; conc 0.00610352 uM,103.4% and 105.6% and 104.9%
same,SKOV3 viability (%),[1]; conc 0.012207 uM,103.7% and 98.9% and 95.6%
same,SKOV3 viability (%),[1]; conc 0.0244141 uM,104.7% and 103.8% and 99.6%
same,SKOV3 viability (%),[1]; conc 0.0488281 uM,100.2% and 99.1% and 100.0%
same,SKOV3 viability (%),[1]; conc 0.0976562 uM,104.8% and 104.3% and 100.1%
same,SKOV3 viability (%),[1]; conc 0.195312 uM,95.4% and 97.0% and 94.0%
same,SKOV3 viability (%),[1]; conc 0.390625 uM,97.7% and 103.0% and 102.9%
same,SKOV3 viability (%),[1]; conc 0.78125 uM,93.0% and 94.9% and 92.8%
same,SKOV3 viability (%),[1]; conc 1.5625 uM,96.7% and 99.9% and 92.6%
same,SKOV3 viability (%),[1]; conc 3.125 uM,90.3% and 92.8% and 92.7%
same,SKOV3 viability (%),[1]; conc 6.25 uM,95.7% and 97.5% and 89.4%
same,SKOV3 viability (%),[1]; conc 12.5 uM,93.5% and 97.4% and 91.5%
same,SKOV3 viability (%),[1]; conc 25 uM,91.8% and 89.5% and 94.8%
same,SKOV3 viability (%),[1]; conc 50 uM,48.8% and 50.2% and 51.9%
same,MESO1 viability (%),[2]; conc 9.53674e-5 uM,100.8% and 105.3% and 105.4%
same,MESO1 viability (%),[2]; conc 0.000190735 uM,95.7% and 102.9% and 100.7%
same,MESO1 viability (%),[2]; conc 0.00038147 uM,104.6% and 103.5% and 110.6%
same,MESO1 viability (%),[2]; conc 0.000762939 uM,99.4% and 101.6% and 106.3%
same,MESO1 viability (%),[2]; conc 0.00152588 uM,103.6% and 107.9% and 110.6%
same,MESO1 viability (%),[2]; conc 0.00305176 uM,103.7% and 97.7% and 102.1%
same,MESO1 viability (%),[2]; conc 0.00610352 uM,102.5% and 110.7% and 106.5%
same,MESO1 viability (%),[2]; conc 0.012207 uM,100.1% and 112.2% and 102.4%
same,MESO1 viability (%),[2]; conc 0.0244141 uM,100.1% and 101.2% and 104.6%
same,MESO1 viability (%),[2]; conc 0.0488281 uM,99.1% and 97.8% and 101.7%
same,MESO1 viability (%),[2]; conc 0.0976562 uM,102.3% and 104.8% and 99.5%
same,MESO1 viability (%),[2]; conc 0.195312 uM,92.8% and 95.2% and 98.3%
same,MESO1 viability (%),[2]; conc 0.390625 uM,100.3% and 99.6% and 94.3%
same,MESO1 viability (%),[2]; conc 0.78125 uM,88.5% and 91.5% and 91.8%
same,MESO1 viability (%),[2]; conc 1.5625 uM,91.5% and 95.3% and 90.6%
same,MESO1 viability (%),[2]; conc 3.125 uM,85.5% and 90.0% and 83.9%
same,MESO1 viability (%),[2]; conc 6.25 uM,92.1% and 98.3% and 96.6%
same,MESO1 viability (%),[2]; conc 12.5 uM,90.4% and 90.6% and 90.0%
same,MESO1 viability (%),[2]; conc 25 uM,77.8% and 73.6% and 73.2%
same,MESO1 viability (%),[2]; conc 50 uM,53.8% and 51.9% and 42.0%
same,Concentration at which cytotoxic activities were shown,"[3]; against the tested cell lines (Jurkat, SKOV-3, MESO-1)",over 10 µM
"COc1cc([C@@H]2c3cc4c(cc3[C@@H](O[C@@H]3O[C@@H]5CO[C@@H](C)O[C@H]5[C@H](O)[C@H]3O)[C@H]3COC(=O)[C@H]23)OCO4)cc(OC)c1O [etoposide, reference compound]","Effect on cell viability, in words","[3]; Jurkat, SKOV-3 and MESO-1 cells, 72 h",typical cytotoxic activities
